{
  "source": "patent US5814646A",
  "about": "“Inhibitors of amyloid beta-protein production” (Eli Lilly and Company, priority 1995, dated 1998)",
  "data": [
    {"system": "Aβ production in 293 751 SWE and CHO 751 SWE cells (transfected with APP-751 Swedish mutation)", "test": "Aβ production inhibition activity in cells (Aβ ELISA of conditioned media, normalized for cytotoxicity by MTT)", "format": "cell-based", "conditions": "5 μg/ml", "summary_of_the_method": "(§1)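 293 and CHO cells stably expressing APP-751 with the Swedish mutation were seeded in 96-well plates and grown overnight at 37° C. They were pretreated with compound for two hours, then given fresh compound-containing media for two more hours. Aβ in the conditioned media was quantified by sandwich ELISA (antibodies 266 and 6C6) and normalized to MTT viability versus drug-free control.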", "units": {"inhibition at 5 µg/mL": "%"}, "values": [
      {"compound": "CC(C)(C)c1ccc(COc2ccc(CN(O)C(=S)NCc3ccccc3)cc2)cc1", "note": "[Compound 52]", "inhibition at 5 µg/mL": 22},
      {"compound": "CCCCCCNC(=S)N(O)Cc1cccc(OCc2ccc(C(C)(C)C)cc2)c1", "note": "[Compound 50]", "inhibition at 5 µg/mL": 25},
      {"compound": "CCCCCCNC(=S)N(O)Cc1ccc(OCc2ccc(F)c(F)c2)cc1", "note": "[Compound 57]", "inhibition at 5 µg/mL": 4},
      {"compound": "CCCCCCNC(=S)N(O)Cc1ccc(-c2ccccc2)cc1", "note": "[Compound 78]", "inhibition at 5 µg/mL": 24},
      {"compound": "CCCCCCNC(=S)N(O)C(Cc1ccccc1)c1cccc(Oc2ccc(C(C)(C)C)cc2)c1", "note": "(stereo not drawn) [Compound 34]", "inhibition at 5 µg/mL": 20}
    ]},
    {"system": "Aβ production in 293 751 SWE and CHO 751 SWE cells (transfected with APP-751 Swedish mutation)", "test": "Aβ production inhibition activity in cells (Aβ ELISA of conditioned media, normalized for cytotoxicity by MTT)", "format": "cell-based", "conditions": "10 μg/ml, % of drug-free control, normalized to MTT", "summary_of_the_method": "as §1", "units": {"inhibition at 10 µg/mL": "%", "Aβ Production Inhibition Activity, % inhibition at 10 μg/ml": "%"}, "values": [
      {"compound": "CCCCCCNC(=S)Nc1ccc(C(=O)c2ccccc2)c(O)c1CCC", "note": "[Compound 202]", "inhibition at 10 µg/mL": 42},
      {"compound": "CC(C)(C)c1ccc(Oc2ccc(NC(=S)Nc3ccc(Cl)cc3)cc2)cc1", "note": "[Compound 191]", "inhibition at 10 µg/mL": 33},
      {"compound": "Cc1cccc(CNC(=S)N(O)Cc2ccc(-c3ccc(C(C)(C)C)cc3)cc2)c1", "note": "[Compound 82]", "inhibition at 10 µg/mL": 30},
      {"compound": "CSc1ccc(NC(=O)Nc2ccccc2Cl)cc1", "note": "[Compound 157]", "inhibition at 10 µg/mL": 41},
      {"compound": "CCCc1c(COc2ccc(CN(O)C(=S)Nc3ccc(Cl)c(C(F)(F)F)c3)cc2)ccc(C(=O)c2ccccc2)c1O", "note": "[Compound 69]", "inhibition at 10 µg/mL": 14},
      {"compound": "Cc1nnc(NC(=O)Nc2c(C)cccc2C)s1", "note": "[Compound 251]", "inhibition at 10 µg/mL": -13},
      {"compound": "O=C(Nc1ccc(Cl)c(Cl)c1)c1ncco1", "note": "[Compound 241]", "Aβ Production Inhibition Activity, % inhibition at 10 μg/ml": -8},
      {"compound": "CCCCCCNC(=S)N(O)Cc1cccc(S(=O)(=O)c2ccc(C(C)(C)C)cc2)c1", "note": "[Compound 93]", "Aβ Production Inhibition Activity, % inhibition at 10 μg/ml": 13},
      {"compound": "CC(C)(C)c1ccccc1Oc1ccc(NC(=S)Nc2ccc(Cl)c(C(F)(F)F)c2)cc1", "note": "[Compound 174]", "inhibition at 10 µg/mL": 66},
      {"compound": "CC(NC(=S)N(O)C(C)c1cccc(Oc2ccc(C(C)(C)C)cc2)c1)c1ccccc1", "note": "(stereo not drawn) [Compound 13]", "inhibition at 10 µg/mL": 46},
      {"compound": "CSc1ccc(NC(=O)Nc2ccc(Cl)cc2Cl)cc1", "note": "[Compound 159]", "inhibition at 10 µg/mL": 4},
      {"compound": "CNC(=O)Nc1nnc(Br)s1", "note": "[Compound 253]", "inhibition at 10 µg/mL": 2},
      {"compound": "CSc1ccc(NC(=O)Nc2cc(Cl)c(Cl)cc2C)cc1", "note": "[Compound 160]", "inhibition at 10 µg/mL": 48},
      {"compound": "Cc1nnc(NC(=O)Nc2cccc(Cl)c2)s1", "note": "[Compound 248]", "inhibition at 10 µg/mL": 47},
      {"compound": "COC(=O)c1ccc(NC(=O)Nc2ccc(Cl)c(C(F)(F)F)c2)cc1OC", "note": "[Compound 165]", "inhibition at 10 µg/mL": 42},
      {"compound": "CS(=O)(=O)c1ccc(NC(=O)Nc2ccc(Cl)cc2)cc1", "note": "[Compound 161]", "inhibition at 10 µg/mL": 40},
      {"compound": "ON(Cc1ccc(OCc2c(Cl)cccc2Cl)cc1)C(=S)NCc1ccccc1", "note": "[Compound 64]", "inhibition at 10 µg/mL": 18},
      {"compound": "CSc1ccc(NC(=O)Nc2ccc(Cl)cc2)cc1", "note": "[Compound 156]", "inhibition at 10 µg/mL": 13},
      {"compound": "CSc1cccc(NC(=O)Nc2nnc(C)s2)c1", "note": "[Compound 252]", "inhibition at 10 µg/mL": 25},
      {"compound": "CCCCCCC(c1cccc(Oc2ccc(C(C)(C)C)cc2)c1)N(O)C(=S)NCc1ccccc1", "note": "(stereo not drawn) [Compound 36]", "inhibition at 10 µg/mL": 26}
    ]},
    {"system": "Aβ production in 293 751 SWE and CHO 751 SWE cells (transfected with APP-751 Swedish mutation)", "test": "Aβ production inhibition activity in cells (Aβ ELISA of conditioned media, normalized for cytotoxicity by MTT)", "format": "cell-based", "conditions": "2 h pretreatment + 2 h incubation", "summary_of_the_method": "as §1", "units": {"IC50": "µM"}, "values": [
      {"compound": "CCCC(c1cccc(Oc2ccc(C(C)(C)C)cc2)c1)N(O)C(=S)NCc1cccc(C)c1", "note": "(stereo not drawn) [Compound 32]", "IC50": 9},
      {"compound": "CCCc1cc(C(C)(C)C)ccc1Oc1ccc(NC(=S)NCc2ccccc2)cc1", "note": "[Compound 197]", "IC50": 4.6},
      {"compound": "CCCCCCNC(=S)N(O)C(C)c1cccc(NC(=O)c2ccc(C(C)(C)C)cc2)c1", "note": "(stereo not drawn) [Compound 98]", "IC50": 13},
      {"compound": "O=C(Nc1ccc(Cl)c(Cl)c1)Nc1nnc(Cl)s1", "note": "[Compound 232, 1-(5-chloro-1,3,4-thiadiazol-2-yl)-3-(3,4-dichlorophenyl)urea]", "IC50": 2},
      {"compound": "CCCCCCNC(=S)N(O)Cc1ccc(COc2ccc(C(C)(C)CC)cc2)cc1", "note": "[Compound 96]", "IC50": 24.8},
      {"compound": "CCCCCCNC(=S)N(O)Cc1ccc(OCc2ccc(C(C)=O)c(O)c2CCC)cc1", "note": "[Compound 68]", "IC50": 19.7},
      {"compound": "CC(c1cccc(Oc2ccc(C(C)(C)C)cc2)c1)N(O)C(=S)NCc1ccc(Cl)cc1Cl", "note": "(stereo not drawn) [Compound 17]", "IC50": 5.7},
      {"compound": "CC(C)(CCl)c1nnc(NC(=O)Nc2ccc(Cl)c(Cl)c2)s1", "note": "[Compound 238, 1-[5-(2-chloro-1,1-dimethylethyl)-1,3,4-thiadiazol-2-yl]-3-(3,4-dichlorophenyl)urea]", "IC50": 1.4},
      {"compound": "CC(c1cccc(Oc2ccc(C(C)(C)C)cc2)c1)N(O)C(=S)NCc1ccc(F)cc1", "note": "(stereo not drawn) [Compound 4]", "IC50": 11.1},
      {"compound": "CC(C)(C)c1ccc(Oc2ccc(NC(=S)NCc3ccc(Br)cc3)cc2)cc1", "note": "[Compound 108]", "IC50": 8.9},
      {"compound": "CC(C)(C)c1ccc(Oc2ccc(NC(=S)NCC3CCCCN3)cc2)cc1", "note": "(stereo not drawn) [Compound 126]", "IC50": 7},
      {"compound": "COc1ccc(CNC(=S)N(O)C(C)c2cccc(Oc3ccc(C(C)(C)C)cc3)c2)cc1", "note": "(stereo not drawn) [Compound 10]", "IC50": "> 20"},
      {"compound": "CC(C)(C)c1ccc(Oc2ccc(NC(=S)NCCc3ccccn3)cc2)cc1", "note": "[Compound 123]", "IC50": 12.3},
      {"compound": "CC(c1cccc(Oc2ccc(C(C)(C)C)cc2)c1)N(O)C(=S)NCc1cccc(F)c1", "note": "(stereo not drawn) [Compound 18]", "IC50": 18.3},
      {"compound": "CC(NC(=S)NCc1ccccc1)c1cccc(Oc2ccc(C(C)(C)C)cc2)c1", "note": "(stereo not drawn) [Compound 39]", "IC50": 10.5},
      {"compound": "CSc1cc(Cl)c(NC(=O)Nc2cccc(Cl)c2)cc1Cl", "note": "[Compound 163]", "IC50": 10.5},
      {"compound": "CC(c1cccc(Oc2ccc(C(C)(C)C)cc2)c1)N(O)C(=S)NCc1ccccc1", "note": "(stereo not drawn) [Compound 1]", "IC50": 11.2},
      {"compound": "CC(C)(C)c1cccc(Oc2ccc(NC(=S)NCc3cccc(C(F)(F)F)c3)cc2)c1", "note": "[Compound 178]", "IC50": 8.6},
      {"compound": "CC(C)(C)c1ccc(Oc2ccc(NC(=S)NCc3ccccc3Cl)cc2)cc1", "note": "[Compound 104]", "IC50": 13.4},
      {"compound": "O=C(Nc1ccc(Cl)c(Cl)c1)c1nc(C(F)(F)F)no1", "note": "[Compound 247]", "IC50": 4.4},
      {"compound": "CC(C)(C)c1ccc(Sc2ccc(CN(O)C(=S)NCc3ccccc3)cc2)cc1", "note": "[Compound 88]", "IC50": 7.5},
      {"compound": "CC(C)(C)c1ccc(Oc2cccc(CNC(=S)NCc3ccccc3)c2)cc1", "note": "[Compound 40]", "IC50": 9.1},
      {"compound": "CSc1ccc(NC(=O)Nc2ccc(Cl)c(Cl)c2)cc1Br", "note": "[Compound 150]", "IC50": 5.2},
      {"compound": "CC(C)(C)c1cccc(Oc2ccc(NC(=S)Nc3ccc(Cl)c(C(F)(F)F)c3)cc2)c1", "note": "[Compound 169]", "IC50": 4.6},
      {"compound": "O=C(Nc1ccccc1)Nc1ccc(Cl)c(Cl)c1", "note": "[Compound 152]", "IC50": 11.4},
      {"compound": "CC(c1cccc(Oc2ccc(C(C)(C)C)cc2)c1)N(O)C(=S)NCc1ccc(Cl)cc1", "note": "(stereo not drawn) [Compound 3]", "IC50": 11.7},
      {"compound": "CC(C)(C)c1ccc(Oc2cccc(CN(O)C(=S)NCc3ccccc3)c2)cc1", "note": "[Compound 26]", "IC50": 3.4},
      {"compound": "CC(C)(C)c1cc(C(=O)Nc2ccc(Cl)c(Cl)c2)on1", "note": "[Compound 245]", "IC50": 9.8},
      {"compound": "O=C(Nc1ccc(Cl)c(Cl)c1)c1nccs1", "note": "[Compound 243]", "IC50": 19.4},
      {"compound": "CC(C)(C)OC(=O)N1CCCC(CNC(=S)Nc2ccc(Oc3ccc(C(C)(C)C)cc3)cc2)C1", "note": "(stereo not drawn) [Compound 125]", "IC50": 9.3},
      {"compound": "CC(C)(C)c1ccccc1Oc1ccc(NC(=S)NCc2ccccc2)cc1", "note": "[Compound 188]", "IC50": 9.4},
      {"compound": "CC(C)(C)c1cccc(Oc2cccc(CN(O)C(=S)NCc3ccccc3)c2)c1", "note": "[Compound 187]", "IC50": 12.1},
      {"compound": "CCCC(c1cccc(Oc2ccc(C(C)(C)C)cc2)c1)N(O)C(=S)NCc1ccc(Cl)c(Cl)c1", "note": "(stereo not drawn) [Compound 31]", "IC50": 10},
      {"compound": "CC(C)(C)c1ccc(Oc2ccc(NC(=S)NCc3ccc(F)c(Cl)c3)cc2)cc1", "note": "[Compound 131]", "IC50": 5},
      {"compound": "CC(C)(C)c1ccc(Oc2ccc(NC(=S)NCc3cccc(Cl)c3)cc2)cc1", "note": "[Compound 105]", "IC50": 9.4},
      {"compound": "CC(C)(C)c1noc(C(=O)Nc2ccc(Cl)c(Cl)c2)n1", "note": "[Compound 246]", "IC50": 5.8},
      {"compound": "S=C(Nc1ccc(Cl)c(Cl)c1)Nc1ccc(Cl)c(Cl)c1", "note": "[Compound 153]", "IC50": 1.7},
      {"compound": "CCCCCCNC(=S)Nc1ccc(Oc2ccc(C(C)(C)C)cc2)cc1", "note": "[Compound 135]", "IC50": 10.6}
    ]}
  ]
}
